Measurements as given in patent US20220054658A1, “CONJUGATES” (Transfection Holdings Limited, priority 2018, published 2022).
Entries after “also recorded” stand apart in the source; their conditions may differ.

How the values were obtained:
C. elegans = experiment: Conjugate uptake in C. elegans (dye and praziquantel conjugates, fluorescence microscopy); type: in vivo, Caenorhabditis elegans
Method in brief: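 Worms in M9 buffer were exposed to 50 μM compound from a DMSO stock at room temperature in the dark for 3 h. Other samples were incubated overnight at 20 °C with OP50, and praziquantel conjugates were also read at 24 and 72 h. Worms were washed, immobilised with sodium azide on agarose and imaged by fluorescence microscopy.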

P. falciparum = experiment: Plasmodium falciparum testing: uptake by infected and non-infected red blood cells; type: cell-based; settings: 25 μM, 45 minutes, 37° C., synchronised stage and mix-stage cultures
Procedure: Compounds 1, 5, 9, 10 and 11 were tested for uptake in both synchronised stage and mix-stage cultures at 25 μM concentrations.

T. annulata = experiment: Theileria annulata testing: uptake; type: cell-based; settings: 1 hour, 37° C.
Procedure: T. annulata were cultured using RPMI 1640 with 10% Albumax II (Thermo-Fisher) serum. A standard hemocytometer was used to calculate the concentration of cells in the parent culture. […] For each compound and concentration to be tested, 2 mL of the culture were centrifuged at 1,000 rpm for 5 minutes. The medium was removed before the cells were resuspended in 950 μL of complete medium containing the compound to be tested at the desired concentration. This was prepared from a 100 mM stock solution of compound in DMSO. Once the cells were resuspended they were transferred to a 5 well plate (1 mL capacity per well). They were then incubated for 1 hour at 37° C. in an atmosphere of 5% CO2 in air. After the incubations were complete the contents of each well were transferred to a 10 mL centrifuge tube. Cold RPMI 1640 (Thermofisher) or HBSS added to obtain a volume of 5 mL. The suspension was then centrifuged at 1,000 rpm and at 4° C. for 5 minutes. […] After the final washing the pellet of cells was resuspended in a minimum amount of RPMI 1640 and then spotted onto a glass slide. The slide was then covered with a cover slip and analysed using Olympus BX60 UV microscope system with a Spot RT3 camera and Spot Image software with a FITC fluorescent filter.

[1] = tested on: gastrointestinal system (crop, midgut and rectum) of adult honey bees; experiment: Honey bee gut uptake test; set-up: species or system Apis mellifera; settings: 100 μM, 33° C., 45 min
Procedure: Honey bee (A. mellifera) hives were obtained and allowed to feed ab libitum spring to autumn. During the winter period, pollen mixed with 50% (v/v) sucrose was added to the honey bee hives in order to provide sufficient food. Honey bees were dissected and gastrointestinal system was removed including the crop, midgut and rectum, and added immediately to 500 μL of the delivery vehicle to be tested sample diluted with PBS at 100 μM final concentration or DMSO (0.1%) control. The mixture was incubated for 45 min at 33° C.
The gastrointestinal system (crop, midgut and rectum) of adult honey bees was extracted, and incubated with derivatives 1, 2, 8 and 11 at 100 μM and 33° C. for 45 min.

[2] = tested on: M. tuberculosis strain H37Rv; experiment: Uptake test in M. tuberculosis; type: cell-based, Mycobacterium tuberculosis; settings: 50 μg/mL (~80 μM), room temperature, 45 min
B. bovis Texas strain = experiment: Short-term uptake test in B. bovis infected RBCs (confocal microscopy); settings: 25 μM, 37° C., 45 min, ~5% PPE
Procedure: The parasite culture was centrifuged and washed once with GIT medium. RBC's were pellet down, and 20 μl infected RBC mixture (10 μl packed infected RBC+10 μl GIT) was prepared. Then, 180 μl GIT medium with compound the compound to be evaluated (final concentration 25 μM for BODIPY derivatives and 100 μM for phiLOV derivatives) or DMSO (0.1%)/PBS control was added. The samples were incubated for 45 min at 37° C. (Samples were stained 1 μg/mL diluted Hoechst 33342 in GIT medium). After incubation, the samples were centrifuged and the pellet was washed with GIT medium (3×). A final solution of 50% haematocrit infected RBC mixture was transferred to slides to be observed by confocal laser microscopy (Nikon A1).
Uptake experiments were performed by incubating the parasite (˜5% Parasitized Erythrocytes (PPE)) with each derivative at 25 μM and 37° C. for 45 min. After incubation, the fluorescence intensities were calculated from confocal microscope images.
The phiLOV double mutant (R475G, K476C) was used to generate derivatives P11, P1, P8, and P3 which were tested for uptake in B. bovis Texas strain using phiLOV as a control. The derivatives and the control were incubated at 100 μM and 37° C. for 45 min. After incubation, the samples were analysed under confocal microscopy using Hoeschst 33342 (Thermofisher) as co-stain.

Structure (SMILES): CC1=CC(C)=[N+]2C1=Cc1ccc(CCCn3cc(CCNC(=O)/C=C/NC(=O)[C@@H]4OC(C)(C)OCC4(C)C)nn3)n1[B-]2(F)F [Compound 1, (R,E)-N-((((3-[4,4-Difluoro-5,7-dimethyl-4-bora-3a,4a-diaza-s-indacene-3-yl]propyl)-1H-1,2,3-triazol-4-yl)ethylamino)-3-oxoprop-1-enyl)-2,2,5,5-tetramethyl-1,3-dioxane-4-carboxamide]
- uptake compared to other compounds (C. elegans; 50 μM, 3 h incubation): largest uptake observed compared to compounds 2 to 8
- uptake: location of fluorescence in C. elegans (C. elegans; 50 μM, 3 h incubation): observed in the pharynx, gut lumen and gut cells of both adults and larval stages
- uptake: location of fluorescence in C. elegans (C. elegans; 50 μM, 20 h / overnight incubation): strong fluorescence was localised in the pharynx, gut lumen and gut cells of both adults and larvae
- distribution in C. elegans (C. elegans; FIG. 2(h), fluorescence microscopy): distributed throughout the nematode
- uptake by infected and non-infected red blood cells (P. falciparum): not taken up either by infected nor non-infected red blood cells in every culture
- uptake in T. annulata (T. annulata): very limited uptake
- fluorescence in honey bee gut (crop, midgut, rectum) [1]: high fluorescence in the midgut and rectum, but not the crop
- uptake in M. tuberculosis (fluorescence intensity / microscopy) [2]: preferred over their S counterparts; also recorded: highest fluorescence signals
- uptake in RBCs infected with B. bovis (fluorescence intensity from confocal images) (B. bovis Texas strain): highest uptake
